# Assays:
# wild oat = experiment: Test B pre/postemergence wild oat; format: in vivo, Avena fatua
# Method in brief: (§1)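 Response is a visual 0-to-10 score relative to untreated plants, where 0 means no effect and 10 means complete control, taken twelve to sixteen days after application. Treatments went onto soil at planting and onto foliage of 1- to 4-leaf plants, using a surfactant-containing non-phytotoxic solvent.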
# cocklebur = experiment: Test B pre/postemergence cocklebur; format: in vivo, Xanthium strumarium
# Method in brief: as §1
# soybean = experiment: Test B pre/postemergence soybean; format: in vivo, Glycine max
# Method in brief: as §1
# morningglory = experiment: Test B pre/postemergence morningglory; format: in vivo, Ipomoea hederacea
# Method in brief: as §1
# purple nutsedge = experiment: Test B pre/postemergence purple nutsedge; format: in vivo, Cyperus rotundus
# Method in brief: as §1
# duck salad = experiment: Test B flood test duck salad; format: in vivo, Heteranthera limosa
# Method in brief: (§2)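 Plants were grown to the 2-leaf stage before treatment with test chemical, then held in a greenhouse for twelve to sixteen days. Injury was visually rated against untreated controls on a 0–10 scale, where 0 is no effect and 10 is complete control.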
# bamyardgrass = experiment: Test B flood test barnyardgrass; format: in vivo, Echinochloa crus-galli
# Method in brief: as §2
# velvetleaf = experiment: Test B pre/postemergence velvetleaf; format: in vivo, Abutilon theophrasti
# Method in brief: as §1
# smallflower flatsedge = experiment: Test B flood test smallflower flatsedge; format: in vivo, Cyperus difformis
# Method in brief: as §2
# rape = experiment: Test B pre/postemergence rape; format: in vivo, Brassica napus
# Method in brief: as §1
# pigweed = experiment: Test B pre/postemergence pigweed; format: in vivo, Amaranthus retroflexus
# Method in brief: as §1
# wheat = experiment: Test B pre/postemergence wheat; format: in vivo, Triticum aestivum
# Method in brief: as §1
# rice = experiment: Test B flood test rice; format: in vivo, Oryza sativa
# Method in brief: as §2
# sugar beet = experiment: Test B pre/postemergence sugar beet; format: in vivo, Beta vulgaris
# Method in brief: as §1
# giant foxtail = experiment: Test B pre/postemergence giant foxtail; format: in vivo, Setaria faberii
# Method in brief: as §1
# blackgrass = experiment: Test B pre/postemergence blackgrass; format: in vivo, Alopecurus myosuroides
# Method in brief: as §1
# [1] = Postemergence, Rate 250 g/ha, scale 0 to 10, 0 no effect, 10 complete control
# [2] = Postemergence, Rate 1000 g/ha, scale 0 to 10 (0 no effect, 10 complete control)
# [3] = Preemergence, Rate 125 g/ha, scale 0 to 10 (0 no effect, 10 complete control)
# [4] = Preemergence, Rate 250 g/ha, scale of 0 to 10 where 0 is no effect and 10 is complete control
# [5] = Preemergence, Rate 500 g/ha, scale 0 (no effect) to 10 (complete control)
# [6] = Rate 125 g/ha, Postemergence, scale 0 to 10, 0 no effect, 10 complete control
# [7] = Rate 1000 g/ha, Preemergence, scale 0 to 10 (0 no effect, 10 complete control)
# [8] = Rate 500 g/ha, Postemergence, 0 to 10 scale (0 no effect, 10 complete control)
# [9] = Rate 125 g/ha, Postemergence section (flood test species), scale 0 to 10, 0 no effect, 10 complete control
# [10] = Rate 500 g/ha, Postemergence section of Table B, 0 to 10 scale (0 no effect, 10 complete control)
# [11] = flood test, listed under Postemergence, Rate 250 g/ha, scale 0 to 10, 0 no effect, 10 complete control
smiles,measurement,setting,value
CCN(CC)C(=O)n1oc(=O)n(-c2ccc(F)cc2)c1=O [Compound 3],Wild oats plant response rating,wild oat; [1],0
same,Wild oats plant response rating,wild oat; [2],0
same,"Plant response rating, Wild oats",wild oat; [3],0
same,"Plant response rating, Wild oats",wild oat; [4],0
same,Wild oats plant response rating,wild oat; [5],0
same,Wild oats plant response rating,wild oat; [6],0
same,"Plant response rating, Wild oats",wild oat; [7],0
same,Cocklebur plant response rating,cocklebur; [1],0
same,Cocklebur plant response rating,cocklebur; [2],2
same,"Plant response rating, Cocklebur",cocklebur; [3],0
same,"Plant response rating, Cocklebur",cocklebur; [4],0
same,Cocklebur plant response rating,cocklebur; [5],0
same,Cocklebur plant response rating,cocklebur; [6],0
same,Cocklebur plant response rating,cocklebur; [8],0
same,"Plant response rating, Cocklebur",cocklebur; [7],0
same,Soybean plant response rating,soybean; [1],1
same,Soybean plant response rating,soybean; [2],2
same,"Plant response rating, Soybean",soybean; [3],0
same,"Plant response rating, Soybean",soybean; [4],0
same,Soybean plant response rating,soybean; [5],0
same,Soybean plant response rating,soybean; [6],0
same,"Plant response rating, Soybean",soybean; [7],0
same,Morningglory plant response rating,morningglory; [1],0
same,Morningglory plant response rating,morningglory; [2],0
same,"Plant response rating, Morningglory",morningglory; [3],0
same,"Plant response rating, Morningglory",morningglory; [4],0
same,Morningglory plant response rating,morningglory; [5],0
same,Morningglory plant response rating,morningglory; [6],0
same,Morningglory plant response rating,morningglory; [8],0
same,"Plant response rating, Morningglory",morningglory; [7],0
same,Nutsedge plant response rating,purple nutsedge; [1],0
same,Nutsedge plant response rating,purple nutsedge; [2],0
same,Nutsedge plant response rating,purple nutsedge; [6],0
same,Nutsedge plant response rating,purple nutsedge; [8],0
same,Ducksalad plant response rating,duck salad; [2],0
same,Ducksalad plant response rating,duck salad; [9],0
same,Ducksalad plant response rating,duck salad; [10],0
same,Ducksalad plant response rating,duck salad; [11],0
same,Barnyardgrass plant response rating,bamyardgrass; [2],0
same,Barnyardgrass plant response rating,bamyardgrass; [9],0
same,Barnyardgrass plant response rating,bamyardgrass; [10],0
same,Barnyardgrass plant response rating,bamyardgrass; [11],0
same,Velvetleaf plant response rating,velvetleaf; [1],0
same,Velvetleaf plant response rating,velvetleaf; [2],0
same,"Plant response rating, Velvetleaf",velvetleaf; [3],0
same,"Plant response rating, Velvetleaf",velvetleaf; [4],0
same,Velvetleaf plant response rating,velvetleaf; [5],0
same,Velvetleaf plant response rating,velvetleaf; [6],0
same,"Plant response rating, Velvetleaf",velvetleaf; [7],0
same,S. Flatsedge plant response rating,smallflower flatsedge; [2],0
same,S. Flatsedge plant response rating,smallflower flatsedge; [9],0
same,S. Flatsedge plant response rating,smallflower flatsedge; [11],0
same,Rape plant response rating,rape; [1],0
same,Rape plant response rating,rape; [2],0
same,"Plant response rating, Rape",rape; [3],0
same,"Plant response rating, Rape",rape; [4],0
same,Rape plant response rating,rape; [5],0
same,Rape plant response rating,rape; [6],0
same,Rape plant response rating,rape; [8],0
same,"Plant response rating, Rape",rape; [7],0
same,Redroot pigweed plant response rating,pigweed; [1],0
same,Redroot pigweed plant response rating,pigweed; [2],0
same,"Plant response rating, Redroot pigweed",pigweed; [3],0
same,"Plant response rating, Redroot pigweed",pigweed; [4],0
same,Redroot pigweed plant response rating,pigweed; [5],0
same,Redroot pigweed plant response rating,pigweed; [6],0
same,Redroot pigweed plant response rating,pigweed; [8],0
same,"Plant response rating, Redroot pigweed",pigweed; [7],0
same,Wheat plant response rating,wheat; [1],0
same,Wheat plant response rating,wheat; [2],0
same,"Plant response rating, Wheat",wheat; [3],0
same,"Plant response rating, Wheat",wheat; [4],0
same,Wheat plant response rating,wheat; [5],0
same,Wheat plant response rating,wheat; [6],0
same,"Plant response rating, Wheat",wheat; [7],0
same,Rice plant response rating,rice; [2],0
same,Rice plant response rating,rice; [9],0
same,Rice plant response rating,rice; [10],0
same,Rice plant response rating,rice; [11],0
same,Sugarbeets plant response rating,sugar beet; [1],0
same,Sugarbeets plant response rating,sugar beet; [2],0
same,"Plant response rating, Sugarbeets",sugar beet; [3],0
same,"Plant response rating, Sugarbeets",sugar beet; [4],0
same,Sugarbeets plant response rating,sugar beet; [5],0
same,Sugarbeets plant response rating,sugar beet; [6],0
same,"Plant response rating, Sugarbeets",sugar beet; [7],0
same,Giant foxtail plant response rating,giant foxtail; [1],3
same,Giant foxtail plant response rating,giant foxtail; [2],8
same,"Plant response rating, Giant foxtail",giant foxtail; [3],0
same,"Plant response rating, Giant foxtail",giant foxtail; [4],1
same,Giant foxtail plant response rating,giant foxtail; [5],8
same,Giant foxtail plant response rating,giant foxtail; [6],0
same,Giant foxtail plant response rating,giant foxtail; [8],7
same,"Plant response rating, Giant foxtail",giant foxtail; [7],10
same,Blackgrass plant response rating,blackgrass; [1],0
same,Blackgrass plant response rating,blackgrass; [2],3
same,"Plant response rating, Blackgrass",blackgrass; [3],0
same,"Plant response rating, Blackgrass",blackgrass; [4],0
same,Blackgrass plant response rating,blackgrass; [5],0
same,Blackgrass plant response rating,blackgrass; [6],0
same,Blackgrass plant response rating,blackgrass; [8],0
same,"Plant response rating, Blackgrass",blackgrass; [7],0
COc1ccc(-n2c(=O)on(C(=O)N(c3ccc(F)cc3)C(C)C)c2=O)cc1 [Compound 5],Wild oats plant response rating,wild oat; [1],1
same,Wild oats plant response rating,wild oat; [2],1
same,"Plant response rating, Wild oats",wild oat; [3],0
same,"Plant response rating, Wild oats",wild oat; [4],6
same,Wild oats plant response rating,wild oat; [5],6
same,Wild oats plant response rating,wild oat; [6],0
same,"Plant response rating, Wild oats",wild oat; [7],6
same,Cocklebur plant response rating,cocklebur; [1],5
same,Cocklebur plant response rating,cocklebur; [2],8
same,"Plant response rating, Cocklebur",cocklebur; [3],0
same,"Plant response rating, Cocklebur",cocklebur; [4],0
same,Cocklebur plant response rating,cocklebur; [5],0
same,Cocklebur plant response rating,cocklebur; [6],5
same,Cocklebur plant response rating,cocklebur; [8],5
same,"Plant response rating, Cocklebur",cocklebur; [7],0
same,Soybean plant response rating,soybean; [1],5
same,Soybean plant response rating,soybean; [2],6
same,"Plant response rating, Soybean",soybean; [3],0
same,"Plant response rating, Soybean",soybean; [4],0
same,Soybean plant response rating,soybean; [5],0
same,Soybean plant response rating,soybean; [6],5
same,"Plant response rating, Soybean",soybean; [7],0
same,Morningglory plant response rating,morningglory; [1],3
same,Morningglory plant response rating,morningglory; [2],9
same,"Plant response rating, Morningglory",morningglory; [3],0
same,"Plant response rating, Morningglory",morningglory; [4],0
same,Morningglory plant response rating,morningglory; [5],0
same,Morningglory plant response rating,morningglory; [6],2
same,"Plant response rating, Morningglory",morningglory; [7],0
same,Nutsedge plant response rating,purple nutsedge; [1],0
same,Nutsedge plant response rating,purple nutsedge; [2],0
same,"Plant response rating, Nutsedge",purple nutsedge; [3],0
same,"Plant response rating, Nutsedge",purple nutsedge; [4],0
same,Nutsedge plant response rating,purple nutsedge; [5],0
same,Nutsedge plant response rating,purple nutsedge; [6],0
same,Nutsedge plant response rating,purple nutsedge; [8],0
same,"Plant response rating, Nutsedge",purple nutsedge; [7],0
same,Ducksalad plant response rating,duck salad; [2],0
same,Ducksalad plant response rating,duck salad; [9],0
same,Ducksalad plant response rating,duck salad; [10],0
same,Ducksalad plant response rating,duck salad; [11],0
same,Barnyardgrass plant response rating,bamyardgrass; [2],4
same,Barnyardgrass plant response rating,bamyardgrass; [9],0
same,Barnyardgrass plant response rating,bamyardgrass; [10],2
same,Barnyardgrass plant response rating,bamyardgrass; [11],0
same,Velvetleaf plant response rating,velvetleaf; [1],5
same,Velvetleaf plant response rating,velvetleaf; [2],7
same,"Plant response rating, Velvetleaf",velvetleaf; [3],0
same,"Plant response rating, Velvetleaf",velvetleaf; [4],0
same,Velvetleaf plant response rating,velvetleaf; [5],0
same,Velvetleaf plant response rating,velvetleaf; [6],4
same,"Plant response rating, Velvetleaf",velvetleaf; [7],0
same,S. Flatsedge plant response rating,smallflower flatsedge; [2],2
same,S. Flatsedge plant response rating,smallflower flatsedge; [9],0
same,S. Flatsedge plant response rating,smallflower flatsedge; [11],0
same,Rape plant response rating,rape; [1],5
same,Rape plant response rating,rape; [2],5
same,"Plant response rating, Rape",rape; [3],0
same,"Plant response rating, Rape",rape; [4],0
same,Rape plant response rating,rape; [5],0
same,Rape plant response rating,rape; [6],5
same,Rape plant response rating,rape; [8],4
same,"Plant response rating, Rape",rape; [7],0
same,Redroot pigweed plant response rating,pigweed; [1],7
same,Redroot pigweed plant response rating,pigweed; [2],8
same,"Plant response rating, Redroot pigweed",pigweed; [3],6
same,"Plant response rating, Redroot pigweed",pigweed; [4],7
same,Redroot pigweed plant response rating,pigweed; [5],7
same,Redroot pigweed plant response rating,pigweed; [6],7
same,Redroot pigweed plant response rating,pigweed; [8],7
same,"Plant response rating, Redroot pigweed",pigweed; [7],10
same,Wheat plant response rating,wheat; [1],1
same,Wheat plant response rating,wheat; [2],2
same,"Plant response rating, Wheat",wheat; [3],0
same,"Plant response rating, Wheat",wheat; [4],0
same,Wheat plant response rating,wheat; [5],0
same,Wheat plant response rating,wheat; [6],0
same,"Plant response rating, Wheat",wheat; [7],0
same,Rice plant response rating,rice; [2],0
same,Rice plant response rating,rice; [9],0
same,Rice plant response rating,rice; [10],0
same,Rice plant response rating,rice; [11],0
same,Sugarbeets plant response rating,sugar beet; [1],4
same,Sugarbeets plant response rating,sugar beet; [2],7
same,"Plant response rating, Sugarbeets",sugar beet; [3],0
same,"Plant response rating, Sugarbeets",sugar beet; [4],0
same,Sugarbeets plant response rating,sugar beet; [5],0
same,Sugarbeets plant response rating,sugar beet; [6],3
same,"Plant response rating, Sugarbeets",sugar beet; [7],0
same,Giant foxtail plant response rating,giant foxtail; [1],7
same,Giant foxtail plant response rating,giant foxtail; [2],7
same,"Plant response rating, Giant foxtail",giant foxtail; [3],7
same,"Plant response rating, Giant foxtail",giant foxtail; [4],8
same,Giant foxtail plant response rating,giant foxtail; [5],9
same,Giant foxtail plant response rating,giant foxtail; [6],1
same,Giant foxtail plant response rating,giant foxtail; [8],4
same,"Plant response rating, Giant foxtail",giant foxtail; [7],10
same,Blackgrass plant response rating,blackgrass; [1],5
same,Blackgrass plant response rating,blackgrass; [2],8
same,"Plant response rating, Blackgrass",blackgrass; [3],3
same,"Plant response rating, Blackgrass",blackgrass; [4],3
same,Blackgrass plant response rating,blackgrass; [5],5
same,Blackgrass plant response rating,blackgrass; [6],4
same,Blackgrass plant response rating,blackgrass; [8],4
same,"Plant response rating, Blackgrass",blackgrass; [7],8
